Data published in patent publication US20240360126A1, “PYRAZOLO[3,4-B]PYRIDINE COMPOUNDS FOR THE TREATMENT OF AUTOIMMUNE DISEASE” (Hoffmann-La Roche Inc., priority 2021, published 2024).

How the values were obtained:
TLR9 [1] = molecular target: T1, TLR9 (Homo sapiens, UniProt Q9NR96); experiment: Human PBMC cell-based assay; set-up: These cells express TLR7, TLR8, or TLR9, and therefore are natural responders to respective ligand stimulation; endogenous in cells; host or cells: human PBMC from healthy donor whole blood; conditions: CpG ODN 2216 at 1 μM, read-out: hPBMC/TLR9 IC50
T1 sequence (Q9NR96 26-1032): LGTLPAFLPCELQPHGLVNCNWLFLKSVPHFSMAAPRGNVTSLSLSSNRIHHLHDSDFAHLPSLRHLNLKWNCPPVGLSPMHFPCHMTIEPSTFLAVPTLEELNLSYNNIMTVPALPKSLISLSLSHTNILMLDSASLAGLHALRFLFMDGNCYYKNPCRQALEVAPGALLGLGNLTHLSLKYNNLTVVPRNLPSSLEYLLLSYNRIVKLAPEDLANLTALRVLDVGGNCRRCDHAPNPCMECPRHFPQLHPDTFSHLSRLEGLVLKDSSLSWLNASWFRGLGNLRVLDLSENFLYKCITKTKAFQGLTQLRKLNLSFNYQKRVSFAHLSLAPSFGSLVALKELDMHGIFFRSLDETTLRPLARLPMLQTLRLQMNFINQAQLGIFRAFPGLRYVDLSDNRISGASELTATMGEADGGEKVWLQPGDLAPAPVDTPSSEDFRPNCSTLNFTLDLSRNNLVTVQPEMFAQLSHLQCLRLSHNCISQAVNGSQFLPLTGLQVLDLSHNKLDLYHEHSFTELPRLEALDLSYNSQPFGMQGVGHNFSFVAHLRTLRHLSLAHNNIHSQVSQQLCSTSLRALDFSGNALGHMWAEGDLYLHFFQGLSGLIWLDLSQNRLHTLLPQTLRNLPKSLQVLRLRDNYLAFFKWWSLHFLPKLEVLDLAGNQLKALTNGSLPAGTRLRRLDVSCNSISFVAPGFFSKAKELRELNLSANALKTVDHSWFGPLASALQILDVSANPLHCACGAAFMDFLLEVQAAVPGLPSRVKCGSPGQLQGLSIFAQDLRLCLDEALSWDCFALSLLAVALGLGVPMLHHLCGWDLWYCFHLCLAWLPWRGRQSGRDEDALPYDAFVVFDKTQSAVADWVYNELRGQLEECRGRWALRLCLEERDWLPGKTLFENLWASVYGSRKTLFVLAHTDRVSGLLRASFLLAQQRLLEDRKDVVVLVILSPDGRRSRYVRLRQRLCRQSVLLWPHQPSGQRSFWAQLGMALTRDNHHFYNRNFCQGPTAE
Text: Unlike the HEK reporter cell lines, human peripheral blood mononuclear cell (PBMC) represents primary human immune cells in blood mainly consisting of lymphocytes, monocytes, and dendritic cells. These cells express TLR7, TLR8, or TLR9, and therefore are natural responders to respective ligand stimulation. Upon activation of these TLRs, PBMCs secrete similar cytokines and chemokines in vitro and in vivo, and therefore the in vitro potency of a TLR7/8/9 antagonist in human PBMC is readily translatable to its pharmacodynamics response in vivo.
Human peripheral blood mononuclear cells (PBMC) were isolated from freshly-drawn lithium-heparinized (Lithium Heparin Plus blood Collection tube, BD Vacutainer®) healthy donor whole blood by density gradient (Ficoll-Paque™ PLUS, GE Healthcare life Sciences). Briefly, […] was diluted with 25 mL PBS (without Ca^2+, Mg^2+) in a 50 mL conical tube with porous barrier (Leucosep tube, Greiner bio-one), where 15.5 mL Ficoll-Paque was under laid after spinning. Tubes were centrifuged for 20 minutes at 800×g (1946 rpm) with the brake in the off position, and PBMC were collected from the buffy coat. Cells were then washed twice in PBS, and red blood cells were lysed by suspension in 2 mL (Red Blood Cell Lysis Buffer, Alfa Aesar) for 5-10 minutes at room temperature. After a final wash in PBS, PBMC were resuspended at a final concentration of 2×10^6 cells/mL in RPMI-1640 media with GlutaMAX™ (Gibco) supplemented with 10% Fetal Bovine Serum (Sigma) and plated at 150 μL/well (3×10^5 cells/well) in tissue culture treated round bottom 96-well plates (Corning Incorporated). Antagonist compounds (compounds of this invention) solubilized and serial diluted in 100% DMSO were added in duplicate to cells to yield a final concentration of 1% DMSO (v/v). PBMC were incubated with antagonist compounds for 30 minutes at 37° C., 5% CO2 before adding various TLR agonist reagents in 48 μL complete media per well as follows (final concentrations indicated): CpG ODN 2216 (InvivoGen) at 1 μM for TLR9, ORN 06/LyoVec (InvivoGen) at […] for TLR8 and R848 (InvivoGen) at 1 μg/mL for TLR7 and TLR8. PBMC were incubated overnight at 37° C. with 5% C02. Cell culture supernatants were collected, and levels of various human cytokines were assessed by Luminex assay (ProcartaPlex™ Multiplex Immunoassay, Invitrogen) or ELISA procedure according to the manufacturer's recommended protocol (eBioscience, ThermoFisher Scientific). Viability of the cells was also checked with Cell Viability Assay (CellTiter Glo® Luminescent Cell Viability Assay, Promega).

hERG K+ channel = molecular target: T2, hERG K+ channel (Homo sapiens, UniProt Q12809); experiment: hERG channel inhibition assay (patch-clamp, CHO-hERG cells); type: cell-based; conditions: for IC50 / IC20: CHO-hERG cells, whole-cell patch-clamp; for IC20: human, CHO cells stably expressing hERG; for hERG IC20/TLR7 IC50 / hERG IC20/TLR8 IC50 / hERG IC20/TLR9 IC50: safety ratio
T2 construct: expressed in transfected cells; host or cells: CHO (Chinese hamster ovary)
T2 sequence (Q12809 whole entry): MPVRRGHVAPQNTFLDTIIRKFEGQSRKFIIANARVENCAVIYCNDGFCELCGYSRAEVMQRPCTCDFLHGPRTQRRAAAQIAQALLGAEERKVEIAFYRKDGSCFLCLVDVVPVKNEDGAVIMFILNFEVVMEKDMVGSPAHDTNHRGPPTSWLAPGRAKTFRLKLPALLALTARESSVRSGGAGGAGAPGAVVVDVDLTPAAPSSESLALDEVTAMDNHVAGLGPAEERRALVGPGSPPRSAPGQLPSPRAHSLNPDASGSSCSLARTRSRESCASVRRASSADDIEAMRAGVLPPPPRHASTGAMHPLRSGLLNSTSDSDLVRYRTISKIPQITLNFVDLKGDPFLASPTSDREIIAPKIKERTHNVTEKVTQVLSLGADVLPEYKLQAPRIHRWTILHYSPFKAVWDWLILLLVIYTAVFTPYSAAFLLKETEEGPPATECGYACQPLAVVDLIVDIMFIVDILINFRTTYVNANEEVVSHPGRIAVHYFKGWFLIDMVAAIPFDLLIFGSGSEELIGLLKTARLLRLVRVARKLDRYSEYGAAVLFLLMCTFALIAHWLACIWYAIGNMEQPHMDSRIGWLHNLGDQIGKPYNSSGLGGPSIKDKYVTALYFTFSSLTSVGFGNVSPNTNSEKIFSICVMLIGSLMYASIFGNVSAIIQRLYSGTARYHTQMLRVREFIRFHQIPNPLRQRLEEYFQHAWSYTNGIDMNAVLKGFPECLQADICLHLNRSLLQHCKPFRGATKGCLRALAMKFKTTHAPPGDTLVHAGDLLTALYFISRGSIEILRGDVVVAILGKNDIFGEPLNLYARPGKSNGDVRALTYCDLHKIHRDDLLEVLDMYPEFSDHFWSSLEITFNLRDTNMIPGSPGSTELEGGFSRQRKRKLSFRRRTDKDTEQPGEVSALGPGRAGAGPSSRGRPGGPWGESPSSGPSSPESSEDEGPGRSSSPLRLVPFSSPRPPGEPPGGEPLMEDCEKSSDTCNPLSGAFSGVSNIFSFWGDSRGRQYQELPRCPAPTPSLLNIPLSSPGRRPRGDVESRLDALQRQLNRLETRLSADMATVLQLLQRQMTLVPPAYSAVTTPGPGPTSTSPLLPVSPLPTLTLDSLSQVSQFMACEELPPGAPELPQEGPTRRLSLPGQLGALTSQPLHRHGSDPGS
Protocol: The hERG K^+ channels were cloned in humans and stably expressed in a CHO (Chinese hamster ovary) cell line. CHOhERG cells were used for patch-clamp (voltage-clamp, whole-cell) experiments. Cells were stimulated by a voltage pattern to activate hERG channels and conduct IKhERG Currents (rapid delayed outward rectifier potassium current of the hERG channel). After the cells were stabilized for a few minutes, the amplitude and kinetics of IKhERG were recorded at a stimulation frequency of 0.1 Hz (6 bpm). Thereafter, the test compound was added to the preparation at increasing concentrations. For each concentration, an attempt was made to reach a steady-state effect, usually, this was achieved within 3-10 min at which time the next highest concentration was applied. The amplitude and kinetics of IKhERG are recorded in each concentration of the drug which were compared to the control values (taken as 100%). (references: Redfe W S, Carlsson L, Davis A S, Lynch W G, MacKenzie I, Palethorpe S, Siegl P K, Strang I, Sullivan A T, Wallis R, Camm A J, Hammond T G. 2003; Relationships between preclinical cardiac electrophysiology, clinical QT interval prolongation and torsade de pointes for a broad range of drugs: evidence for a provisional safety margin in drug development. Cardiovasc. Res. 58:32-45, Sanguinetti M C, Tristani-Firouzi M. 2006; hERG potassium channels and cardiac arrhythmia. Nature 440:463-469, Webster R, Leishman D, Walker D. 2002; Towards a drug concentration effect relationship for QT prolongation and torsades de pointes. Curr. Opin. Drug Discov. Devel. 5:116-26).

[2] = Human microsome stability assay; type: in vitro ADME; conditions: for Clearance of Human microsome: 1 μM test compound, 0.5 mg/mL liver microsomal protein, 37° C.
Protocol: The human microsomal stability assay is used for early assessment of metabolic stability of a test compound in human liver microsomes.
Human liver microsomes (Cat. NO.: 452117, Corning, USA; Cat. NO.:H2610, Xenotech, USA) were preincubated with test compound for 10 minutes at 37° C. in 100 mM potassium phosphate buffer, pH 7.4. The reactions were initiated by adding NADPH regenerating system.
The final incubation mixtures contained 1 μM test compound, 0.5 mg/mL liver microsomal protein, 1 mM MgCl2, 1 mM NADP, 1 unit/mL isocitric dehydrogenase and 6 mM isocitric acid in 100 mM potassium phosphate buffer, pH 7.4. After incubation times of 0, 3, 6, 9, 15 and 30 minutes at 37° C., 300 μL of cold acetonitrile (including internal standard) was added to 100 μL incubation mixture to terminate the reaction. Following precipitation and centrifugation, the amount of compound remaining in the samples were determined by LC-MS/MS. Controls of no NADPH regenerating system at zero and 30 minutes were also prepared and analyzed.

TLR9 [3] = molecular target: T1, TLR9; experiment: TLR9 activity of Novartis WO2018047081 compounds (background comparison)

Row | SMILES | IC50 (TLR9 [1]) [µM] | Clearance of Human microsome [2] [mL/min/kg] | human liver microsome stability (in words) [2] | TLR9 activity (in words) (TLR9 [3]) | IC50 (hERG K+ channel) [µM] | IC20 (hERG K+ channel) [µM] | hERG IC20/TLR7 IC50 (hERG K+ channel) | hERG IC20/TLR8 IC50 (hERG K+ channel) | hERG IC20/TLR9 IC50 (hERG K+ channel)
1 | Cc1cc(N2CC[C@@H](c3ncc(N4CCNC5(CC5)C4)cc3C)[C@H](C)C2)c2cnn(C)c2n1 [Example 30, 4-[(3S,4R)-4-[5-(4,7-diazaspiro[2.5]octan-7-yl)-3-methyl-2-pyridyl]-3-methyl-1-piperidyl]-1,6-dimethyl-pyrazolo[3,4-b]pyridine] | 0.78 |  |  |  | > 10 | 4.9 | 544.4 | 350.0 | 11.6
2 | C[C@@H]1CN(c2ccnc3c2cnn3C)CC[C@H]1c1ccc(N2CCNCC2)nc1 (relative stereo) [Example 19, 1-methyl-4-[trans-3-methyl-4-(6-piperazin-1-yl-3-pyridyl)-1-piperidyl]pyrazolo[3,4-b]pyridine] |  | 6.2 |  |  |  |  |  |  | 
3 | Cc1cc(N2CCC(c3ncc(N4CCNCC4)nc3C)CC2)c2cnn(C)c2n1 [Example 12, 1,6-dimethyl-4-[4-(3-methyl-5-piperazin-1-yl-pyrazin-2-yl)-1-piperidyl]pyrazolo[3,4-b]pyridine] |  | 9.7 |  |  | > 20 | 7 | 205.9 | 233.3 | 15.5

Further lines, with some results ahead:

Row | IC50 (TLR9 [1]) [µM] | Clearance of Human microsome [2] [mL/min/kg] | human liver microsome stability (in words) [2] | TLR9 activity (in words) (TLR9 [3]) | SMILES | IC50 (hERG K+ channel) [µM] | IC20 (hERG K+ channel) [µM] | hERG IC20/TLR7 IC50 (hERG K+ channel) | hERG IC20/TLR8 IC50 (hERG K+ channel) | hERG IC20/TLR9 IC50 (hERG K+ channel)
4 |  | 18.2 | poor | best TLR9 activity | Cc1cc(N2CCc3c(c(C)nn3CC34CCC(N(C)C5CCC5)(CC3)CC4)C2)c2cnn(C)c2n1 [Example N79, reference compound] |  |  |  |  | 
5 |  | 16.3 | poor | much lower TLR9 activity | Cc1cc(N2CCc3c(c(C)nn3CC34CCC(NC(=O)[C@@H]5COCCN5)(CC3)CC4)C2)c2cnn(C)c2n1 [Example N8, reference compound] |  |  |  |  | 
